Measurements reported in US20110166078A1, “OLIGOSACCHARIDE COMPOUNDS FOR USE IN MOBILISING STEM CELLS” (ENDOTIS PHARMA, priority 2008, published 2011).

Tests used:
[1] = test system: PDGF-β-induced NHDF proliferation; experiment: PDGF-β-induced NHDF proliferation assay; type: cell-based, human; conditions: PDGF-β 10 ng/ml; FIGS. 8-12
Procedure: (§1) The activities of the compounds of the present invention were tested using a proliferation assay, such as the one described by N. Ali et al., J Pharmacol Sci, 2005, 98, 130-141. A defined number of cells is seeded in each well of a culture plate. In order to stimulate cell proliferation, a growth factor is added in some wells, while others remain unstimulated (basal proliferation conditions). To monitor the effects of substances of interest (oligosaccharides compounds according to the present invention) on basal and growth factor-induced cell proliferation, substances of interest are added at different concentrations (i.e. 0.1, 0.3, 1, 3, 10 or 30 μM) in presence or absence of the growth factor, respectively. After an incubation period of 24 hours, the total number of cells is estimated in all samples (generally through an indirect method, such as incorporation of radioactivity into the newly synthesised DNA or colorimetric assays based on cellular enzyme activities or metabolite production). The total number of cells for the control sample in which no substance of interest nor growth factor have been added is set to 1. The total number of cells in all the other samples is compared to this value in order to obtain the relative proliferation index.
Typically, cells are seeded in 48 or 96-well plates. After 2 h (i.e. the time required for cells to adhere to the support) the normal culture media is replaced by a minimal essential culture media in which cells are grown for 24 h (starvation period). This step is used to reduce cell growth (cell metabolism is slowed down in order to better visualise the growth factor stimulation effect) before adding an angiogenic protein, such as a growth factor i.e. FGF-2 or PDGF-β. No growth factor is added in basal proliferation conditions (independently of the presence or absence of the oligosaccharide of the present invention). To evaluate the inhibition of the oligosaccharide compounds according to the present invention on cell proliferation, the angiogenic protein (growth factor) is added at a fixed concentration (from 5 ng/ml to 10 ng/ml) with increasing amounts of oligosaccharide compounds (0.1, 0.3, 1, 3, 10 or 30 μM), which allows the IC50 value to be estimated (i.e. the oligosaccharide concentration at which the stimulatory effect of the growth factor is inhibited by 50%).
(§2) Following addition of the angiogenic protein (growth factor) over a 24 h stimulation period, a commercial reagent containing a substrate for a cellular enzyme is added and incubated for couple of hours. The degradation of the substrate by the enzyme leads to the production of a coloured product which is titrated by absorbance measurement. […]

[2] = test system: FGF-2-induced NHDF (Normal Human Dermal Fibroblast) cell proliferation; experiment: FGF-2-induced NHDF proliferation assay; type: cell-based; conditions: compound 0.1 to 30 μM
Procedure: as §1
Typically, cells are seeded in 48 or 96-well plates. After 2 h (i.e. the time required for cells to adhere to the support) the normal culture media is replaced by a minimal essential culture media in which cells are grown for 24 h (starvation period). This step is used to reduce cell growth (cell metabolism is slowed down in order to better visualise the growth factor stimulation effect) before adding an angiogenic protein, such as a growth factor i.e. FGF-2 or PDGF-β. No growth factor is added in basal proliferation conditions (independently of the presence or absence of the oligosaccharide of the present invention). […]
as §2
In the following experiments the effects of compounds 240 and 241 (concentrations from 0.1 to 30 μM) were evaluated on FGF-2-induced NHDF (Normal Human Dermal Fibroblast) cell proliferation. […]

SDF-1α = SDF-1α (Homo sapiens, UniProt P48061); experiment: SDF-1α/heparin competition assay by SPR (Biacore); type: binding; conditions: 96 nM SDF-1α, biotinylated low molecular weight heparin (6 kDa), Sensorchip SA
Procedure: (§3) Heparin or low molecular weight heparin (6 kDa) from SIGMA were biotinylated at the reducing end and immobilized on a Biacore sensorchip. Different concentrations of the compounds of the present invention were co-incubated at a fixed concentration of targets: FGF-2, PDGF-β, VEGF-A or SDF-1α for 30 minutes. The mixture was then injected onto the streptavidin control (control reference) and HP surfaces. Only free growth factor (GF) or chemokine, i.e. the target molecules not bound to compounds of the present invention, were trapped on the heparin surface. From the binding of free targets on heparin, the percentages of inhibition were calculated and then reported in function of compound concentrations. The plot was fitted with a four-parameter model and IC50 was calculated. The 0% inhibition value was obtained for the injection of the studied target in running-buffer, and the 100% inhibition value was obtained for the injection of the studied target co-incubated with 10 μM of low molecular weight heparin 6 kDa.
A SDF-1α/heparin competition assay using the Biacore technology was performed using the following conditions: 96 nM SDF-1α, biotinylated low molecular weight heparin (6 kDa), Reference Streptavidin, Sensorchip SA, HBS-P, Regeneration NaCl 2M
(§4) IC50 values of compounds of the present invention were determined using the Biacore technology for the growth factor and chemokine/heparin competition assays that contained the following proteins: VEGF-A, SDF-1α, FGF-2 and PDGF-β.

FGF-2 = FGF-2 (Homo sapiens, UniProt P09038); experiment: FGF-2/heparin competition assay by SPR (Biacore); type: binding; conditions: 10 nM FGF-2, biotinylated heparin, Sensorchip C1
Procedure: as §3
A FGF-2/heparin competition assay using the Biacore technology was performed in the following conditions: 10 nM FGF-2, biotinylated heparin, Reference Streptavidin, Sensorchip C1, PBS-T 0.02%, Regeneration NaCl 2M
as §4

[3] = test system: control and VEGF-A-stimulated angiogenesis (endothelial tubules, HUVEC/NHDF co-culture); experiment: In vitro angiogenesis assay (endothelial tubule formation, AngioKit); type: cell-based, human; conditions: 30 μM compound; anti-CD31 ELISA and AngioSys image analysis; FIGS. 13-15
Description: These experiments are also known as endothelial tubule formation assays and they are used to evaluate the compound effects on in vitro angiogenesis (the neo-formation of blood vessels from pre-existing ones). This process is critical in tumour development as bloodstream brings all the necessary nutrients and oxygen to cancer cells.
The assay uses a commercially available product (AngioKit) specially designed for screening experiments. The product consists of a 24 or 96-well culture plate containing endothelial and fibroblast cells. A similar assay has been developed “in-house” using 48-well culture plates.
Endothelial cells will, on a ten-day period, develop into a branched network of endothelial tubules or “primitive” blood vessels. This process requires a co-culture with fibroblasts, these latter cells secreting essential growth factors for endothelial cells. At the end of the incubation period (about ten days), angiogenesis is monitored both by ELISA and image analysis software quantifying different blood vessel parameters (number and average length of tubules, field area, number of junctions for example). All reagents and material (except the oligosaccharide compounds, the VEGF-A and the 48-well plate AngioKits) are bought from TCS CellWorks (http://www.tcscellworks.co.uk) which provides: • 24 and 96-well plate AngioKits (including culture medium) • Anti-CD31 (a cell marker specifically expressed on endothelial cells) reagents for ELISA and tubule staining procedures. • AngioSys image analysis software
For home-made 48-well plate AngioKits, NHDF and HUVEC cells were independently purchased while TCS CellWorks culture medium and protocol were used.
The cell medium is replaced with fresh one (day 1) and cells are incubated at 37° C. with the compounds of interest (oligosaccharides and/or angiogenic proteins, such as growth factors). During the course of the experiment, the culture medium (including oligosaccharides and/or angiogenic proteins) is replaced at days 4 and 7.
At day 10, the assay is terminated by the labelling of endothelial cells by an ELISA procedure (indirect colorimetric titration of the endothelial cell number through dosage of the endothelial-specific CD31 marker) and the staining of endothelial tubules. Photographs of stained tubules are taken and analysed with the AngioSys image analysis software.
In the following assay the effects of compounds 239, 240, 246, 247, 248, 249, 252, 254, 255 and 257 on in vitro angiogenesis were measured (all compounds were added at the 30 μM concentration). […] For the data presented in FIG. 13, AngioSys image analyses are shown on FIG. 14. Photographs of endothelial tubules are shown on the side of the anti-CD31 ELISA (see FIGS. 13 and 15).

VEGF-A = biological target: T1, VEGF-A (Homo sapiens, UniProt P15692); experiment: VEGF-A/heparin competition assay by SPR (Biacore); type: binding; conditions: 10 nM VEGF-A, biotinylated low molecular weight heparin, Sensorchip SA
T1 sequence (P15692 27-191 isoform P15692-4): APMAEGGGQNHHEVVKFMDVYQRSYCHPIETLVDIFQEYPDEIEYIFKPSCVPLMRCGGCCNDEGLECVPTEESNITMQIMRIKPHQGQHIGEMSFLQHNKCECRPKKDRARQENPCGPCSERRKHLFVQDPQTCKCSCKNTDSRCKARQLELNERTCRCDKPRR
Procedure: as §3
A VEGF-A/heparin competition assay using the Biacore technology was performed using the following conditions: 10 nM VEGF-A, biotinylated low molecular weight heparin, Reference Streptavidin, Sensorchip SA, HBS-P, Regeneration NaCl 2M.
as §4

PDGF-β = PDGF-β (Homo sapiens, UniProt P01127); experiment: PDGF-β/heparin competition assay by SPR (Biacore); type: binding; conditions: 10 nM PDGF-β, biotinylated heparin, Sensorchip C1
Procedure: as §3, with “kDa. A PDGF-β/heparin competition assay using the Biacore technology was performed using the following conditions: 10 nM PDGF-β, biotinylated heparin, Reference Streptavidin, Sensorchip C1, HBS-P, Regeneration NaCl 2M. IC50 values of compounds of the present invention were determined using the Biacore technology for the growth factor and chemokine/heparin competition assays that contained the following proteins: VEGF-A, SDF-1α, FGF-2 and PDGF-β.” for “kDa.”

IC50 (SDF-1α) [nM]	IC50 (FGF-2) [nM]	IC50 (VEGF-A) [nM]	IC50 (PDGF-β) [nM]	Structure (SMILES)	inhibition of PDGF-β-induced NHDF proliferation [1]	inhibition of FGF-2-induced fibroblast proliferation ([2]; FGF-2 5 ng/ml, FIGS. 6-7)	basal NHDF proliferation ([2]; control conditions, no growth factor)	inhibition of control and/or VEGF-A-stimulated angiogenesis [3]
				C#CCCCOC1OC(COS(=O)(=O)[O-])C(OC2OC(C(=O)[O-])C(OC3OC(COS(=O)(=O)[O-])C(OC4OC(C(=O)[O-])C(OCc5ccccc5)C(OCc5ccccc5)C4OS(=O)(=O)[O-])C(OCc4ccccc4)C3NS(=O)(=O)[O-])C(OCc3ccccc3)C2OS(=O)(=O)[O-])C(OCc2ccccc2)C1NS(=O)(=O)[O-].[Na+].[Na+].[Na+].[Na+].[Na+].[Na+].[Na+].[Na+] (centres unmarked) [Compound 237]	inhibit PDGF-β proliferation (starting in the micromolar range)			
				C#CCCCOC1OC(COS(=O)(=O)[O-])C(OC2OC(C(=O)[O-])C(OC3OC(COS(=O)(=O)[O-])C(OC4OC(C(=O)[O-])C(OC5OC(COS(=O)(=O)[O-])C(OC6OC(C(=O)[O-])C(OC7OC(COS(=O)(=O)[O-])C(OC8OC(C(=O)[O-])C(OC9OC(COS(=O)(=O)[O-])C(OC%10OC(C(=O)[O-])C(OCc%11ccccc%11)C(OCc%11ccccc%11)C%10OS(=O)(=O)[O-])C(OCc%10ccccc%10)C9NS(=O)(=O)[O-])C(OCc9ccccc9)C8OS(=O)(=O)[O-])C(OCc8ccccc8)C7NS(=O)(=O)[O-])C(OCc7ccccc7)C6OS(=O)(=O)[O-])C(OCc6ccccc6)C5NS(=O)(=O)[O-])C(OCc5ccccc5)C4OS(=O)(=O)[O-])C(OCc4ccccc4)C3NS(=O)(=O)[O-])C(OCc3ccccc3)C2OS(=O)(=O)[O-])C(OCc2ccccc2)C1NS(=O)(=O)[O-].[Na+].[Na+].[Na+].[Na+].[Na+].[Na+].[Na+].[Na+].[Na+].[Na+].[Na+].[Na+].[Na+].[Na+].[Na+].[Na+].[Na+].[Na+].[Na+].[Na+] (centres unmarked) [Compound 241]	inhibit PDGF-β proliferation (starting in the micromolar range)	inhibit FGF-2-induced fibroblast proliferation (starting in the micromolar range)	did not seem to be affected	
430	> 100000	45	1690	C#CCCCOC1OC(COS(=O)(=O)[O-])C(OC2OC(C(=O)[O-])C(OC3OC(COS(=O)(=O)[O-])C(OC4OC(C(=O)[O-])C(OC5OC(COS(=O)(=O)[O-])C(OC6OC(C(=O)[O-])C(OC)C(OC)C6OS(=O)(=O)[O-])C(OCc6ccccc6)C5NS(=O)(=O)[O-])C(OC)C4OS(=O)(=O)[O-])C(OCc4ccccc4)C3NS(=O)(=O)[O-])C(OC)C2OS(=O)(=O)[O-])C(OCc2ccccc2)C1NS(=O)(=O)[O-].[Na+].[Na+].[Na+].[Na+].[Na+].[Na+].[Na+].[Na+].[Na+].[Na+].[Na+].[Na+] (centres unmarked) [Compound 247]				inhibition of control and/or VEGF-A-stimulated angiogenesis
22600	1660	1670	28000	C#CCCCOC1OC(COS(=O)(=O)[O-])C(OC2OC(C(=O)[O-])C(OC3OC(COS(=O)(=O)[O-])C(OC4OC(C(=O)[O-])C(OC5OC(COS(=O)(=O)[O-])C(OC6OC(C(=O)[O-])C(OC)C(OC)C6OS(=O)(=O)[O-])C(OC)C5NS(=O)(=O)[O-])C(OC)C4OS(=O)(=O)[O-])C(OC)C3NS(=O)(=O)[O-])C(OC)C2OS(=O)(=O)[O-])C(OC)C1NS(=O)(=O)[O-].[Na+].[Na+].[Na+].[Na+].[Na+].[Na+].[Na+].[Na+].[Na+].[Na+].[Na+].[Na+] (centres unmarked) [Compound 248]				inhibition of control and/or VEGF-A-stimulated angiogenesis
